Where two headings read alike, the source gives them in different places.
How the values were obtained:
Assay type in all cases: in vivo
[1] = tested on: pea aphid (Acyrthosiphon pisum); assay: Foliar application, pea aphid mortality; details: read-out: Mortality (% killed)
Description: (§1) The compounds were also tested in foliar applications at various concentrations in aqueous solutions containing 10% acetone and 0.25% emulsifier. The plants (English fava bean for pea aphid and pinto bean for the remaining species) were placed on a revolving turntable in a hood, and the test solutions were applied with a sprayer. The test solutions were applied to the upper and lower surfaces of the plant leaves while the turntable revolved 10 times (5 for upper surface and 5 for lower surface). The total spray time was approximately one minute, and the leaves were covered to runoff. In every case the lowest rate was applied first and the highest rate last. The plants were then allowed to dry. The treated leaves were removed and placed in 240 ml or 480 ml wax treated containers. Ten individuals of the appropriate species were placed in each container and the container capped. Mortality was read 48 hours post-treatment unless otherwise noted. Two replicates of ten individuals were made at each rate. Foliar evaluation used southern armyworm (Spodoptera eridania), Mexican bean beetle (Epilachna varivestis), pea aphid (Acyrthosiphon pisum), and twospotted spider mite (Tetranychus urticae).

[2] = tested on: cabbage looper (Trichoplusia ni); assay: Topical application to cabbage looper; details: CL, 24 hours after application
Description: (§2) The activity was evaluated in topical application to southern armyworm (Spodoptera eridania), Mexican bean beetle (Epilachna varivestis), large milkweed bug (Oncopeltus fasciatus), cabbage looper (Trichoplusia ni), and tobacco budworm (Heliothis virescens). Two replicates of 10 test larvae per replicate were placed in 9 cm petri dishes, each lined with a piece of filter paper and a food source. On the second or third dorsal thoracic segment of each larva was placed a 1 microliter droplet containing the desired amount of the test compound in acetone. The toxic effect of the compound was determined 24 hours after application. An insect was considered dead if it could no longer right itself and move in an oriented pattern.

[3] = tested on: southern armyworm (Spodoptera eridania); assay: Foliar application, southern armyworm mortality; details: read-out: Mortality (% killed)
Description: as §1

[4] = tested on: Mexican bean beetle (Epilachna varivestis); assay: Foliar application, Mexican bean beetle mortality; details: read-out: Mortality (% killed)
Description: as §1

[5] = tested on: Mexican bean beetle (Epilachna varivestis); assay: Topical application to Mexican bean beetle; details: MBB, 24 hours after application
Description: as §2

[6] = tested on: southern armyworm (Spodoptera eridania); assay: Topical application to southern armyworm larvae; details: SAW, 24 hours after application
Description: as §2

[7] = tested on: tobacco budworm (Heliothis virescens); assay: Topical application to tobacco budworm; details: TBW, 24 hours after application
Description: as §2

[8] = tested on: large milkweed bug (Oncopeltus fasciatus); assay: Topical application to large milkweed bug; details: MWB, 24 hours after application
Description: as §2

[9] = tested on: twospotted spider mite (Tetranychus urticae); assay: Foliar application, twospotted spider mite mortality; details: read-out: Mortality (% killed)
Description: as §1

Work on `CC1(C)[C@H](C=C(Cl)Cl)[C@@H]1C(=O)OCc1cccc2c1CCc1ccccc1-2` (relative stereo) [Ex. I (cis), (9,10-dihydro-1-phenanthryl)methyl cis-3-(2,2-dichloroethenyl)-2,2-dimethylcyclopropanecarboxylate] yielded a mortality at 16 ppm ([1]; PA, foliar, 48 hours) of 55%, a mortality at 32 ppm ([1]; PA, foliar, 48 hours) of 90% and an LD50 [2] of 241 ng/insect. It also gave a mortality at 16 ppm ([3]; SAW, foliar, 48 hours) of 10%, a mortality at 32 ppm ([3]; SAW, foliar, 32 ppm, 48 hours) of 30% and a mortality at 80 ppm ([3]; SAW, foliar, 80 ppm, 48 hours) of 80%. It also gave a mortality at 16 ppm ([4]; MBB, foliar, 48 hours) of 30%, a mortality at 32 ppm ([4]; MBB, foliar, 48 hours) of 35% and a mortality at 80 ppm ([4]; MBB, foliar, 80 ppm, 48 hours) of 75%. For the same compound, the LD50 [5] was 64 ng/insect, the LD50 [6] was 121 ng/insect and the LD50 [7] was 193 ng/insect. The LD50 [8] was 176 ng/insect.

In the case of `CC1(C)[C@H](C(=O)OCc2cccc3c2CCc2ccccc2-3)[C@@H]1C=C(Cl)C(F)(F)F` (relative stereo) [Ex. II (cis), (9,10-dihydro-1-phenanthryl)methyl cis-3-(2-chloro-3,3,3-trifluoromethyl-1-propenyl)-2,2-dimethylcyclopropanecarboxylate], the mortality at 10 ppm ([1]; 48 h) is reported as 85%, the LD50 [2] is reported as 61 ng/insect and the mortality at 8 ppm ([3]; 48 h) is reported as 30%. For the same compound, the mortality at 32 ppm ([3]; 48 h) was 95%, the mortality at 8 ppm ([4]; 48 h) was 90% and the LD50 [5] was 9.4 ng/insect. The LD50 [6] was 36 ng/insect, the LD50 [7] was 45 ng/insect and the LD50 [8] was 170 ng/insect. It also gave a mortality at 32 ppm ([9]; 48 h) of 78%.

With `CC1(C)[C@H](C=C(Cl)Cl)[C@@H]1C(=O)OCc1cccc2c1CCCc1ccccc1-2` (relative stereo) [Ex. III (cis), (6,7-dihydro-5H-dibenzo[a,c]cyclohepten-4-yl)methyl cis-3-(2,2-dichloroethenyl)-2,2-dimethylcyclopropanecarboxylate] the mortality at 4.5 ppm ([1]; PA, foliar, 4.5 ppm, 48 hours) was 55%, the mortality at 10 ppm ([1]; PA, foliar, 10 ppm, 48 hours) was 90% and the LD50 [2] was 62 ng/insect. For the same compound, the mortality at 4.5 ppm ([3]; SAW, foliar, 4.5 ppm, 48 hours) was 5%, the mortality at 10 ppm ([3]; SAW, foliar, 10 ppm, 48 hours) was 40% and the mortality at 4.5 ppm ([4]; MBB, foliar, 4.5 ppm, 48 hours) was 55%. The mortality at 10 ppm ([4]; MBB, foliar, 10 ppm, 48 hours) was 85%, the LD50 [5] was 11 ng/insect and the LD50 [6] was 96 ng/insect. It also gave an LD50 [7] of 375 ng/insect, an LD50 [8] of 104 ng/insect and a mortality at 10 ppm ([9]; TSM, foliar, 10 ppm, 48 hours) of 13%.

In the case of `CC1(C)[C@@H](C=C(Cl)Cl)[C@@H]1C(=O)OCc1cccc2c1CCCc1ccccc1-2` (relative stereo) [Ex. III (trans), (6,7-dihydro-5H-dibenzo[a,c]cyclohepten-4-yl)methyl trans-3-(2,2-dichloroethenyl)-2,2-dimethylcyclopropanecarboxylate], the mortality at 4 ppm ([1]; PA, foliar, 48 hours) is reported as 80%, the mortality at 16 ppm ([1]; PA, foliar, 48 hours) is reported as 90% and the LD50 [2] is reported as 92 ng/insect. For the same compound, the mortality at 4 ppm ([3]; SAW, foliar, 48 hours) was 10%, the mortality at 16 ppm ([3]; SAW, foliar, 48 hours) was 100% and the mortality at 4 ppm ([4]; MBB, foliar, 48 hours) was 20%. The mortality at 16 ppm ([4]; MBB, foliar, 48 hours) was 55%, the LD50 [5] was 50 ng/insect and the LD50 [6] was 95 ng/insect. For the same compound, the LD50 [7] was 355 ng/insect and the LD50 [8] was 315 ng/insect.

With `CC1(C)[C@H](C(=O)OCc2cccc3c2CCCc2ccccc2-3)[C@@H]1C=C(Cl)C(F)(F)F` (relative stereo) [Ex. IV (cis), (6,7-dihydro-5H-dibenzo[a,c]cyclohepten-4-yl)methyl cis-3-(2-chloro-3,3,3-trifluoromethyl-1-propenyl)-2,2-dimethylcyclopropanecarboxylate] the mortality at 0.25 ppm ([1]; 48 h) was 80%, the LD50 [2] was 64 ng/insect and the mortality at 10 ppm ([3]; 48 h) was 75%. The mortality at 2.1 ppm ([4]; 48 h) was 100%, the LD50 [5] was 4.26 ng/insect and the LD50 [6] was 54 ng/insect. It also gave an LD50 [7] of 212 ng/insect, an LD50 [8] of 83 ng/insect and a mortality at 2.1 ppm ([9]; 48 h) of 4%. It also gave a mortality at 10 ppm ([9]; 48 h) of 100%.

`CC1(C)[C@H](C(=O)OCc2cccc3c2Cc2ccccc2-3)[C@@H]1C=C(Cl)Cl` (relative stereo) [Ex. V (cis), 9H-fluorene-1-methyl cis-3-(2,2-dichloroethenyl)-2,2-dimethylcyclopropanecarboxylate] gave a mortality at 64 ppm ([1]; 48 h) of 30%, a mortality at 500 ppm ([1]; 48 h) of 90% and a mortality at 64 ppm ([3]; 48 h) of 0%. For the same compound, the mortality at 500 ppm ([3]; 48 h) was 100%, the mortality at 64 ppm ([4]; 48 h) was 0% and the LD50 [5] was 3320 ng/insect. It also gave an LD50 [6] of 460 ng/insect and a mortality at 500 ppm ([9]; 48 h) of 0%.

With `CC1(C)[C@@H](C=C(Cl)Cl)[C@@H]1C(=O)OCc1cccc2c1Cc1ccccc1-2` (relative stereo) [Ex. V (trans), 9H-fluorene-1-methyl trans-3-(2,2-dichloroethenyl)-2,2-dimethylcyclopropanecarboxylate] the mortality at 64 ppm ([1]; 48 h) was 20%, the mortality at 500 ppm ([1]; 48 h) was 0% and the mortality at 64 ppm ([3]; 48 h) was 0%. For the same compound, the mortality at 500 ppm ([3]; 48 h) was 25%, the mortality at 64 ppm ([4]; 48 h) was 15% and the mortality at 500 ppm ([9]; 48 h) was 0%.

For `CC1(C)[C@H](C(=O)OCc2cccc3c2Cc2ccccc2-3)[C@@H]1C=C(Cl)C(F)(F)F` (relative stereo) [Ex. VI (cis), 9H-fluorene-1-methyl cis-3-(2-chloro-3,3,3-trifluoromethyl-1-propenyl)-2,2-dimethylcyclopropanecarboxylate], the mortality at 64 ppm ([1]; 48 h) was 50%, the mortality at 500 ppm ([1]; 48 h) was 90% and the mortality at 64 ppm ([3]; 48 h) was 95%. The mortality at 500 ppm ([3]; 48 h) was 100%, the mortality at 64 ppm ([4]; 48 h) was 0% and the LD50 [5] was 762 ng/insect. The LD50 [6] was 1160 ng/insect and the mortality at 500 ppm ([9]; 48 h) was 0%.

In the case of `CC1(C)[C@H](C=C(Cl)C(F)(F)F)[C@@H]1C(=O)OCc1cccc2c1CCCCc1ccccc1-2` (relative stereo) [Ex. VII (cis), (5,6,7,8-tetrahydrodibenzo[a,c]cycloocten-4-yl)methyl cis-3-(2-chloro-3,3,3-trifluoropropenyl)-2,2-dimethylcyclopropanecarboxylate], the mortality at 4 ppm ([1]; PA, foliar, 48 hours) is reported as 0%, the mortality at 4 ppm ([4]; MBB, foliar, 48 hours) is reported as 95% and the LD50 [5] is reported as 20.6 ng/insect. For the same compound, the LD50 [6] was 410 ng/insect, the LD50 [8] was 396 ng/insect and the mortality at 16 ppm ([9]; TSM, foliar, 48 hours) was 24%.

Work on `CC1(C)[C@H](C=C(Cl)Cl)[C@@H]1C(=O)OCc1cccc(-c2ccccc2)c1` (relative stereo) [Ref., [(1,1biphenyl)-3-yl]methyl cis3-(2,2-dichloroethenyl)-2,2-dimethylcyclopropanecarboxylate, reference compound] yielded a mortality at 32 ppm ([1]; PA, foliar, 48 hours) of 70%, an LD50 [2] of 560 ng/insect and a mortality at 4 ppm ([3]; SAW, foliar, 48 hours) of 90%. For the same compound, the mortality at 32 ppm ([4]; MBB, foliar, 48 hours) was 50%, the LD50 [5] was 18 ng/insect and the LD50 [6] was 27 ng/insect. For the same compound, the LD50 [7] was 2330 ng/insect, the LD50 [8] was 620 ng/insect and the mortality at 500 ppm ([9]; TSM, foliar, 500 ppm, 48 hours) was 33%.

`CC1(C)[C@H](C(=O)OCc2cccc3c2CCCCc2ccccc2-3)[C@@H]1C=C(Cl)Cl` [Ex. VIII (1R,cis), (5,6,7,8-tetrahydrodibenzo[a,c]cycloocten-4-yl)methyl 1R,cis-3-(2,2-dichloroethenyl)-2,2-dimethylcyclopropanecarboxylate] showed a mortality at 4 ppm ([1]; PA, foliar, 48 hours) of 0%, a mortality at 4 ppm ([4]; MBB, foliar, 48 hours) of 50% and an LD50 [6] of 201 ng/insect. It also gave an LD50 [8] of 460 ng/insect and a mortality at 16 ppm ([9]; TSM, foliar, 48 hours) of 14%.

— US4433182A, “Insecticidal 2,2'-bridged[1,1'-biphenyl]-3-ylmethyl esters” (FMC Corporation, priority 1981, dated 1984)
